Test results: PubChem BioAssay (NCI)
Values joined by “and” are separate entries in the source; they are usually repeats but may differ in a detail not shown here. Equal entries are not always repeated.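 Exposure lasted 48 hours, with cells grown in 96-well plates and compounds tested at five concentrations. Abbreviation: GI50, concentration required for 50% inhibition of growth. TGI is the concentration that stops growth completely.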

How the values were obtained:
Test in all cases: inhibition of tumour cell growth, NCI panel, 48 h
HCT-116 colon = system: HCT-116 colon
COLO 205 colon = system: COLO 205 colon
OVCAR-5 ovarian = system: OVCAR-5 ovarian
SF-268 CNS = system: SF-268 CNS
EKVX NSCLC = system: EKVX NSCLC
HOP-62 NSCLC = system: HOP-62 NSCLC
SF-295 CNS = system: SF-295 CNS
UACC-62 melanoma = system: UACC-62 melanoma
HOP-92 NSCLC = system: HOP-92 NSCLC
LOX IMVI melanoma = system: LOX IMVI melanoma

SMILES | GI50 (HCT-116 colon) [µM] | TGI (HCT-116 colon) | GI50 (COLO 205 colon) | TGI (COLO 205 colon) | GI50 (OVCAR-5 ovarian) [µM] | TGI (OVCAR-5 ovarian) | GI50 (SF-268 CNS) [µM] | TGI (SF-268 CNS) | GI50 (EKVX NSCLC) [µM] | TGI (EKVX NSCLC) | GI50 (HOP-62 NSCLC) [µM] | TGI (HOP-62 NSCLC) | GI50 (SF-295 CNS) [µM] | TGI (SF-295 CNS) | GI50 (UACC-62 melanoma) | TGI (UACC-62 melanoma) [µM] | GI50 (HOP-92 NSCLC) [µM] | TGI (HOP-92 NSCLC) [µM] | GI50 (LOX IMVI melanoma) [µM] | TGI (LOX IMVI melanoma)
[Mn+3].[O-][Cl+3]([O-])([O-])O.[O-]c1ccccc1C=NCCN1CC1.[O-]c1ccccc1C=NCCN1CC1 | 15.1 | > 100 µM | 28.9 µM | 97.3 µM | 37.6 | > 100 µM | 15.9 | > 100 µM | 41.3 | > 100 µM | 28.6 | > 100 µM | 18.6 | 58 µM | 16.6 µM | 33.6 | 94.8 | > 100 |  | 
CCOc1ccc(Nc2ccnc3cc(Cl)ccc23)cc1 | 35 | > 100 µM | > 100 µM | > 100 µM | 8.02 | > 100 µM | 57 | > 100 µM |  |  | > 100 | > 100 µM | 34.4 | > 100 µM | > 100 µM | > 100 | 16.1 | > 100 | 41.9 | > 100 µM
COC(=O)CCCCCOS(=O)(=O)c1ccc(C)cc1 |  | > 100 µM |  | > 100 µM |  | > 100 µM |  | > 100 µM |  | > 100 µM |  |  |  | > 100 µM |  | > 100 |  | > 100 |  | > 100 µM
O=c1cc(-c2ccccc2)oc2c(O)c(O)ccc12 | 4.01 | > 100 µM | 18.3 µM | 53.9 µM | 22 | > 100 µM | 6.4 | > 100 µM | 18.4 | > 100 µM | 7.08 | > 100 µM | 7.8 | > 100 µM | 13.8 µM | 66.4 |  |  | 9.58 | > 100 µM
Cn1cnc(SC2=CC(=O)C=C3S[C@H]4C[C@@]23c2c(c(O)c3c5c2=NCCC=5C=N3)N4)c1CC(N)C(=O)O (some centres undefined) | 2.24 | 4.88 µM | 1.53 µM | 3.01 µM | 19.4 | 33.6 µM | 12.4 | 26.1 µM | 19.3 | 34.3 µM |  |  | 15.9 | 29.6 µM | 7.31 µM | 19.6 | 17.5 | 31.7 | 4.64 | 18.6 µM
COc1nc(NC2OC(COC(C)=O)C(OC(C)=O)C(OC(C)=O)C2OC(C)=O)c(N=C(C)C(C)=O)c(=O)n1C (centres undefined) |  | > 100 µM |  | > 100 µM |  | > 100 µM |  |  |  | > 100 µM |  | > 100 µM |  | > 100 µM |  | > 100 |  | > 100 |  | > 100 µM
COc1cc(/C=C2\C[C@H]3[C@@H]4CC=C5C[C@@H](O)CC[C@]5(C)[C@H]4CC[C@]3(C)[C@H]2O)ccc1OCCN1CCCCC1 | 0.254 | 0.494 µM |  |  | 1.03 | 2.6 µM | 1.74 | 12.5 µM | 1.67 | 9.62 µM | 0.799 | 1.68 µM | 0.906 | 1.75 µM | 1.73 µM | 3.45 | 0.688 | 1.47 | 0.589 | 1.34 µM
Nc1ccc(C(=O)CC2(O)C(=O)Nc3ccccc32)cc1 (centres undefined) |  | > 100 µM |  | > 100 µM |  | > 100 µM |  | > 100 µM |  | > 100 µM |  |  |  | > 100 µM |  | > 100 |  | > 100 |  | > 100 µM
CCOC(=O)NC(=O)c1cn(C2CCCCC2)c(=O)n(C)c1=O |  | > 100 µM |  | > 100 µM |  | > 100 µM |  | > 100 µM |  |  |  | > 100 µM |  | > 100 µM |  | > 100 |  | > 100 |  | > 100 µM
C=CCN=C1NC(=O)C(CC(=O)Nc2cccc(Cl)c2)S1 (centres undefined) |  |  |  | > 100 µM |  | > 100 µM |  | > 100 µM |  | > 100 µM |  | > 100 µM |  | > 100 µM |  | > 100 |  |  |  | > 100 µM
C=C(C)[C@@H]1C/C=C(/COC(C)=O)CC[C@H]2O[C@@]2(C)CC/C=C(\C)CC1 | 38 | > 100 µM | > 100 µM | > 100 µM | > 100 | > 100 µM | > 100 | > 100 µM |  |  | > 100 | > 100 µM | > 100 | > 100 µM | > 100 µM | > 100 | > 100 | > 100 | 20.3 | 46.5 µM
Cc1ccccc1SC(/C=C/NNC1=NC(c2ccccc2)C(c2ccccc2)=NN1)c1ccccc1 (centres undefined) |  |  |  | > 100 µM |  | > 100 µM |  | 58.7 µM |  | > 100 µM |  | 49.4 µM |  | 57.7 µM |  | > 100 |  | 27.7 |  | > 100 µM
N#Cc1c(N)c(C(=O)c2ccc3c(c2)OCCO3)n2c1CCCC2 | 3.55 | > 100 µM | 1.82 µM | > 23.5 µM | 8.82 | > 100 µM | 7.46 | > 100 µM |  |  | 3.48 | > 100 µM | 2.69 | > 53.4 µM | 5.99 µM | > 100 | 2.33 | > 100 | 6.92 | > 100 µM
NCCCNCc1c2ccccc2c(CNCCCN)c2ccccc12 |  | 48.2 µM |  | 22.8 µM |  | 62.1 µM |  | 20.2 µM |  | 43.5 µM |  | 62.6 µM |  | 56.2 µM |  | > 100 |  | 49.1 |  | 
COC(=O)[C@@H](C)C[C@H](Cc1ccccc1)NC(=O)c1csc([C@@H](C[C@H](C(C)C)N(C)C(=O)[C@@H](NC(=O)[C@H]2CCCCN2C)c2ccc(F)cc2)OC(C)=O)n1 |  | 25 µM and > 100 µM | 0.0113 µM and 0.0379 µM | 0.127 µM and 0.526 µM |  | 25 µM and > 100 µM |  | 25 µM and > 100 µM |  | 25 µM and > 100 µM |  | 25 µM and 40.4 µM |  | 25 µM and > 100 µM | 0.00331 µM and 0.0025 µM | 25 |  |  |  | 6.71 µM and 20.8 µM
O=C(N/C(=C\c1cccc([N+](=O)[O-])c1)c1nc2c3c(ccc2[nH]1)C(=O)c1ccccc1C3=O)c1ccccc1 |  | > 100 µM |  |  |  | 90.4 µM |  | > 100 µM |  | > 100 µM |  | > 100 µM |  |  |  | > 100 |  | > 100 |  | 
OCC#Cc1ccccc1C#Cc1ccc(C#Cc2ccccc2C#CCO)cc1 | 25.8 | 66.7 µM | > 100 µM | > 100 µM | 30.4 | 75.9 µM | 35.1 | > 100 µM | 34.6 | 97.1 µM | 28.1 | 68.5 µM | 22.7 | 62.6 µM | 58.6 µM | > 100 |  |  | 48.1 | > 100 µM
